Consider 3 compounds from US20060257543A1, “Molecules comprising linked organic moieties as flavor modifiers for comestible compositions” (priority 2005, published 2006).

In data set [1] the target is T1, hT1R2/hT1R3 sweet receptor expressed in an HEK293 cell line (Homo sapiens, UniProt Q7RTX0+Q8TE23).
T1 construct: expressed in transfected cells; host or cells: HEK293 derivative, clone S-9
T1 sequence (Q8TE23 20-839): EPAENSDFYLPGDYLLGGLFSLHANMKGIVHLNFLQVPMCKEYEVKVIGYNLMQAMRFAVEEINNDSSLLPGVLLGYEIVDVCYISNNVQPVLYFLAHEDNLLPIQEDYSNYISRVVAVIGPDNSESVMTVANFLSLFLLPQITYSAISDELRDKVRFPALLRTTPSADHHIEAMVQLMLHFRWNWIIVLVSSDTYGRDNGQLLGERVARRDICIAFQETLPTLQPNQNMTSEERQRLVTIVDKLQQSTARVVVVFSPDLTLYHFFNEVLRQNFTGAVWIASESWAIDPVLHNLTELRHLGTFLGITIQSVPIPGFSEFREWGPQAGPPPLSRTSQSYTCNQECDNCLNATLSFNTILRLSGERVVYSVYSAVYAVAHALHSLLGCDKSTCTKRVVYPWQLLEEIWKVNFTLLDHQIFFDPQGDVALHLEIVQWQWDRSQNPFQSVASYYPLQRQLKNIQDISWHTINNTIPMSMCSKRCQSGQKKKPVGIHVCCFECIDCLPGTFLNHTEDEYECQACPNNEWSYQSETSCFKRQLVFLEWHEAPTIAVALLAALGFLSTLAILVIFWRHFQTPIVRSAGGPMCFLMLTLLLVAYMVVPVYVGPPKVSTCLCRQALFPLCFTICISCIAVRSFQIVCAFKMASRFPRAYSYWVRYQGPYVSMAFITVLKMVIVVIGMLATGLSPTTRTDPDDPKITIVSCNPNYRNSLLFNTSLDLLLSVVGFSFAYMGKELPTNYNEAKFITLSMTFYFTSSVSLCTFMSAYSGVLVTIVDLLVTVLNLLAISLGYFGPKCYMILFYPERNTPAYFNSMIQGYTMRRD
T1 sequence (Q7RTX0 21-852): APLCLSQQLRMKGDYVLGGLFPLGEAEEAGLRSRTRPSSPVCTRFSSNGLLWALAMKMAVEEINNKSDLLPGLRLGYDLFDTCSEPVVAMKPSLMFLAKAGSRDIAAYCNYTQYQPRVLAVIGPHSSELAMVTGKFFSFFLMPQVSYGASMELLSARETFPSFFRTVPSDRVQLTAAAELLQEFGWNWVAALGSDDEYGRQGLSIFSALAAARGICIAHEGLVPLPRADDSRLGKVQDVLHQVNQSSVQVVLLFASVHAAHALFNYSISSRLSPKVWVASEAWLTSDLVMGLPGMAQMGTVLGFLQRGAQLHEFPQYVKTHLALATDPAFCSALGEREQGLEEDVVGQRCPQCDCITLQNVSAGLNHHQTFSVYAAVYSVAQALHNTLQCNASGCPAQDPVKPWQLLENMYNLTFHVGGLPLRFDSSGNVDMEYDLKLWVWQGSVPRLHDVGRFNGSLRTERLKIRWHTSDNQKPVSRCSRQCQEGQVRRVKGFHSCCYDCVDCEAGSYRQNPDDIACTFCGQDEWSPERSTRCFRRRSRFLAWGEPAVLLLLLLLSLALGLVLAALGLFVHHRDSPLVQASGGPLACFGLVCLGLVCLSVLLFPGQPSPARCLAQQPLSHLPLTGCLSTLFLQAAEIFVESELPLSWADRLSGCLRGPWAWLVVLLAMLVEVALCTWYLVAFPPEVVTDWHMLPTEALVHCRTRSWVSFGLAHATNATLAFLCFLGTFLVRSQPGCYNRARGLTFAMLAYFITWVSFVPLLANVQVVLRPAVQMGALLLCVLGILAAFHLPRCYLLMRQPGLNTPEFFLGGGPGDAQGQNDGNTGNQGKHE
As to the kind of experiment: In vitro hT1R2/hT1R3 sweet taste receptor activation assay (FLIPR, dose response). It is filed as cell-based. The note with it: read-out: EC50 for activation of a hT1R2/hT1R3 sweet receptor. The source says: An HEK293 cell line derivative (see Chandrashekar, J., Mueller, K. L., Hoon, M. A., Adler, E., Feng, L., Guo, W., Zuker, C. S., Ryba, N. J.,. Cel,l 2000, 100, 703-711.) that stably expresses Gα15 and hT1R2/hT1R3 (see Li, X., Staszewski, L., Xu, H., Durick, K., Zoller, M., Adler, E. Proc Natl Acad Sci USA 2002, 99, 4692-4696, and PCT Publication No. WO 03/001876) was used to identify compounds with sweet taste enhancing properties. These references are hereby incorporated herein by reference for their methods of preparing and maintaing the cell lines discussed below, and for their methods for screeing compounds that inhibit the biological receptors.
Compounds covered in this document were initially selected based on their activity on the hT1R2/hT1R3—HEK293-Gα15 cell line (Li, et al. vide supra). Activity was determined using an automated fluorometric imaging assay on a FLIPR instrument (Fluorometric Intensity Plate Reader, Molecular Devices, Sunnyvale, Calif.) (designated FLIPR assay). Cells from one clone (designated S-9 cells) were seeded into 384-well plates (at approximately 50,000 cells per well) in a medium containing DMEM Low Glucose (Invitrogen, Carlsbad, Calif.), 10% dialyzed fetal bovine serum (Invitrogen, Carlsbad, Calif.), 100 Units/ml Penicillin G, and 100 μg/ml Streptomycin (Invitrogen, Carlsbad, Calif.) (Li, et al. vide supra) see also World Patent No. WO 03/001876 A2). S-9 cells were grown for 24 hours at 37° C. S-9 cells were then loaded with the calcium dye Fluo-3AM (Molecular Probes, Eugene, Oreg.), 4 μM in a phosphate buffered saline (D-PBS) (Invitrogen, Carlsbad, Calif.), for 1 hour at room temperature. After replacement with 25 μl D-PBS, stimulation was performed in the FLIPR instrument and at room temperature by the addition of 25 μl D-PBS supplemented with different stimuli at concentrations corresponding to twice the desired final level. Receptor activity was quantified by determining the maximal fluorescence increases (using a 480 nm excitation and 535 nm emission) after normalization to basal fluorescence intensity measured before stimulation.
For dose-responses analysis, stimuli were presented in duplicates at 10 different concentrations ranging from 60 nM to 30 μM. Activities were normalized to the response obtained with 400 mM D-fructose, a concentration that elicits maximum receptor response. EC50s were determined using a non-linear regression algorithm (using a Senomyx, Inc. software), where the Hill slope, bottom asymptotes and top asymptotes were allow to vary. Identical results were obtained when analyzing the dose-response data using commercially available software for non-linear regression analysis such as GraphPad PRISM (San Diego, Calif.).

Molecules are shown by their SMILES.

For `CC(C)Oc1ccc(NC(=S)NCc2ccsc2)cc1` [Example 3, 1-(4-Isopropoxyphenyl)-3-(thiophen-3-ylmethyl)thiourea], the melting point (as a rule, the temperature, or range, at which the solid turns liquid) fell in the range of 80.5 to 81.5 °C. Further, the EC50 in data set [1] is 150 nM.
`CC(C)Oc1ccc(NC(=S)NCc2ccoc2)cc1` [Example 4, 1-(furan-3-ylmethyl)-3-(4-isopropoxyphenyl)thiourea]: the melting point is 89 to 90 °C. Further, the EC50 in data set [1] stood at 230 nM.
In turn, `COc1ccc(CNc2ccccc2C)cc1O` [Example 12, 5-((o-toluidino)methyl)-2-methoxyphenol] registered a melting point of 104 to 105 °C. Also, the EC50 in data set [1] stood at 2980 nM.
